Reference: the NIST ThermoML archive (doi:10.1021/je900407u)

Test: isobaric coefficient of expansion
Details: Liquid, Micro DSCII

CCCCn1cc[n+](C)c1.F[B-](F)(F)F [1-butyl-3-methylimidazolium tetrafluoroborate]
isobaric coefficient of expansion
Details | 5000 kPa | 10000 kPa | 15000 kPa | 20000 kPa | 25000 kPa | 30000 kPa | 35000 kPa | 40000 kPa | 45000 kPa | 50000 kPa
278.15 K | 0.000605 1/K | 0.0006 1/K | 0.000592 1/K | 0.000586 1/K | 0.000581 1/K | 0.000575 1/K | 0.000571 1/K | 0.000564 1/K | 0.000559 1/K | 0.000553 1/K
288.15 K | 0.000598 1/K | 0.000592 1/K | 0.000587 1/K | 0.000582 1/K | 0.000577 1/K | 0.00057 1/K | 0.000566 1/K | 0.000557 1/K | 0.000555 1/K | 0.000553 1/K
298.15 K | 0.000594 1/K | 0.00059 1/K | 0.000581 1/K | 0.000575 1/K | 0.000571 1/K | 0.000563 1/K | 0.000558 1/K | 0.000552 1/K | 0.000547 1/K | 0.000545 1/K
308.15 K | 0.000588 1/K | 0.00058 1/K | 0.000575 1/K | 0.000569 1/K | 0.000561 1/K | 0.000557 1/K | 0.00055 1/K | 0.000547 1/K | 0.000542 1/K | 0.000535 1/K
318.15 K | 0.00058 1/K | 0.000577 1/K | 0.00057 1/K | 0.000561 1/K | 0.000558 1/K | 0.000552 1/K | 0.000547 1/K | 0.000543 1/K | 0.000536 1/K | 0.000532 1/K
328.15 K | 0.000576 1/K | 0.00057 1/K | 0.000563 1/K | 0.000559 1/K | 0.000551 1/K | 0.000544 1/K | 0.000541 1/K | 0.000534 1/K | 0.000528 1/K | 0.000523 1/K
338.15 K | 0.000571 1/K | 0.000566 1/K | 0.000561 1/K | 0.000552 1/K | 0.000547 1/K | 0.000543 1/K | 0.000536 1/K | 0.000531 1/K | 0.000526 1/K | 0.000522 1/K
348.15 K | 0.000569 1/K | 0.000566 1/K | 0.000557 1/K | 0.000552 1/K | 0.000545 1/K | 0.000539 1/K | 0.000535 1/K | 0.000528 1/K | 0.000524 1/K | 0.00052 1/K

CCCC[n+]1ccn(C)c1.O=S(=O)([N-]S(=O)(=O)C(F)(F)F)C(F)(F)F
isobaric coefficient of expansion
Details | 5000 kPa | 10000 kPa | 15000 kPa | 20000 kPa | 25000 kPa | 30000 kPa | 35000 kPa | 40000 kPa | 45000 kPa | 50000 kPa
278.15 K | 0.000672 1/K | 0.000661 1/K | 0.000651 1/K | 0.000643 1/K | 0.000632 1/K | 0.000627 1/K | 0.000618 1/K | 0.000612 1/K | 0.000602 1/K | 0.000594 1/K
288.15 K | 0.000665 1/K | 0.000656 1/K | 0.000646 1/K | 0.000638 1/K | 0.000632 1/K | 0.000622 1/K | 0.000615 1/K | 0.000606 1/K | 0.000599 1/K | 0.000594 1/K
298.15 K | 0.000662 1/K | 0.000653 1/K | 0.000642 1/K | 0.000633 1/K | 0.000626 1/K | 0.000616 1/K | 0.000607 1/K | 0.000599 1/K | 0.000592 1/K | 0.000586 1/K
308.15 K | 0.000657 1/K | 0.000647 1/K | 0.000636 1/K | 0.000627 1/K | 0.000617 1/K | 0.00061 1/K | 0.000602 1/K | 0.000595 1/K | 0.000586 1/K | 0.000578 1/K
318.15 K | 0.00065 1/K | 0.000646 1/K | 0.000634 1/K | 0.000623 1/K | 0.000614 1/K | 0.000605 1/K | 0.000597 1/K | 0.000588 1/K | 0.000581 1/K | 0.000573 1/K
328.15 K | 0.000665 1/K | 0.000649 1/K | 0.000636 1/K | 0.000625 1/K | 0.000614 1/K | 0.000603 1/K | 0.000595 1/K | 0.000582 1/K | 0.000578 1/K | 0.000569 1/K
338.15 K | 0.000646 1/K | 0.000635 1/K | 0.000625 1/K | 0.000615 1/K | 0.000605 1/K | 0.000597 1/K | 0.000587 1/K | 0.00058 1/K | 0.000573 1/K | 0.000566 1/K
348.15 K | 0.000653 1/K | 0.000639 1/K | 0.000623 1/K | 0.000613 1/K | 0.000604 1/K | 0.000595 1/K | 0.000586 1/K | 0.000578 1/K | 0.000569 1/K | 0.000563 1/K

CCCCn1cc[n+](C)c1.[F][Sb-]([F])([F])([F])([F])[F] [1-butyl-3-methylimidazolium hexafluoroantimonate]
isobaric coefficient of expansion
Details | 5000 kPa | 10000 kPa | 15000 kPa | 20000 kPa | 25000 kPa | 30000 kPa | 35000 kPa | 40000 kPa | 45000 kPa | 50000 kPa
278.15 K | 0.000636 1/K | 0.000627 1/K | 0.000619 1/K | 0.000614 1/K | 0.000607 1/K | 0.0006 1/K | 0.000593 1/K | 0.000589 1/K | 0.000582 1/K | 0.000575 1/K
288.15 K | 0.00063 1/K | 0.000621 1/K | 0.000614 1/K | 0.000609 1/K | 0.000603 1/K | 0.000596 1/K | 0.000589 1/K | 0.000582 1/K | 0.000575 1/K | 0.000573 1/K
298.15 K | 0.000624 1/K | 0.000619 1/K | 0.000609 1/K | 0.000602 1/K | 0.000597 1/K | 0.000588 1/K | 0.000581 1/K | 0.000576 1/K | 0.000571 1/K | 0.000566 1/K
308.15 K | 0.00062 1/K | 0.00061 1/K | 0.000604 1/K | 0.000596 1/K | 0.000589 1/K | 0.000583 1/K | 0.000576 1/K | 0.000571 1/K | 0.000563 1/K | 0.000558 1/K
318.15 K | 0.000612 1/K | 0.000609 1/K | 0.000599 1/K | 0.000591 1/K | 0.000584 1/K | 0.000577 1/K | 0.00057 1/K | 0.000564 1/K | 0.000557 1/K | 0.00055 1/K
328.15 K | 0.000609 1/K | 0.000601 1/K | 0.000595 1/K | 0.000589 1/K | 0.00058 1/K | 0.000573 1/K | 0.000566 1/K | 0.000559 1/K | 0.000553 1/K | 0.000547 1/K
338.15 K | 0.000607 1/K | 0.000599 1/K | 0.000593 1/K | 0.000585 1/K | 0.000575 1/K | 0.000569 1/K | 0.000563 1/K | 0.000556 1/K | 0.000549 1/K | 0.000545 1/K
348.15 K | 0.000602 1/K | 0.000597 1/K | 0.000588 1/K | 0.000579 1/K | 0.000574 1/K | 0.000567 1/K | 0.000562 1/K | 0.000555 1/K | 0.000549 1/K | 0.000542 1/K

CCCCn1cc[n+](C)c1.O=S(=O)([O-])C(F)(F)F [1-butyl-3-methylimidazolium trifluoromethanesulfonate]
isobaric coefficient of expansion
Details | 5000 kPa | 10000 kPa | 15000 kPa | 20000 kPa | 25000 kPa | 30000 kPa | 35000 kPa | 40000 kPa | 45000 kPa | 50000 kPa
278.15 K | 0.000621 1/K | 0.000612 1/K | 0.000603 1/K | 0.000599 1/K | 0.00059 1/K | 0.000585 1/K | 0.000579 1/K | 0.000575 1/K | 0.000566 1/K | 0.000561 1/K
288.15 K | 0.000617 1/K | 0.000607 1/K | 0.000599 1/K | 0.000593 1/K | 0.000588 1/K | 0.00058 1/K | 0.000574 1/K | 0.000566 1/K | 0.000561 1/K | 0.000558 1/K
298.15 K | 0.00061 1/K | 0.000604 1/K | 0.000595 1/K | 0.000588 1/K | 0.000581 1/K | 0.000574 1/K | 0.000566 1/K | 0.000559 1/K | 0.000554 1/K | 0.000549 1/K
308.15 K | 0.000606 1/K | 0.000597 1/K | 0.000587 1/K | 0.000581 1/K | 0.000574 1/K | 0.000568 1/K | 0.000562 1/K | 0.000556 1/K | 0.000548 1/K | 0.000543 1/K
318.15 K | 0.0006 1/K | 0.000595 1/K | 0.000585 1/K | 0.000579 1/K | 0.000571 1/K | 0.000564 1/K | 0.000557 1/K | 0.000551 1/K | 0.000544 1/K | 0.000539 1/K
328.15 K | 0.000596 1/K | 0.000586 1/K | 0.000581 1/K | 0.000574 1/K | 0.000565 1/K | 0.000559 1/K | 0.000552 1/K | 0.000544 1/K | 0.000538 1/K | 0.000534 1/K
338.15 K | 0.000594 1/K | 0.000585 1/K | 0.000578 1/K | 0.000571 1/K | 0.000562 1/K | 0.000556 1/K | 0.000548 1/K | 0.000542 1/K | 0.000537 1/K | 0.000532 1/K
348.15 K | 0.000591 1/K | 0.000583 1/K | 0.000574 1/K | 0.000568 1/K | 0.000559 1/K | 0.000552 1/K | 0.000547 1/K | 0.00054 1/K | 0.000535 1/K | 0.00053 1/K
